Assay results: US9284580B2 (priority 2010, dated 2016)
Like-named read-outs stand apart in the source and are kept apart here.

Key:
AckKO(pMAD22) = assay: Batch fermentation in serum bottles with a hydrogenase inhibitor; format: cell-based, Clostridium tyrobutyricum; conditions: hydrogenase inhibitor added to fermentation
C. tyrobutyricum mutants = test system: C. tyrobutyricum mutants
Text: Cell growth was monitored by measuring the optical density at 600 nm (OD600) of the culture broth.

C[n+]1ccc(-c2cc[n+](C)cc2)cc1 [methyl viologen] was tested, and the “effect on acids and butanol production from glucose” value (AckKO(pMAD22)) was “significantly decreased acids production and enhanced butanol production from glucose”.

With Cc1cc2nc3ccc(N(C)C)cc3nc2cc1N.Cl [neutral red] the “effect on acids and butanol production from glucose” value (AckKO(pMAD22)) was “significantly decreased acids production and enhanced butanol production from glucose”.

In the case of butanol, the “effect on cell growth” value (C. tyrobutyricum mutants; 0.5% (v/v) butanol in RCM medium, strains studied) is reported as “does not have any apparent effect on cell growth”, the cell growth (C. tyrobutyricum mutants; 2.0% (v/v) butanol, all strains started to grow after 2 days) is reported as “no significant cell growth was observed for the first 24 hours” and the tolerated butanol concentration (C. tyrobutyricum mutants; after adaptation) is reported as “up to 2.0 % (v/v)”. The tolerated butanol concentration (C. tyrobutyricum mutants; without adaptation) was “up to 1.5 % (v/v)”.
